Experimental data published in US9056865B2, “Pyridine-2-derivatives as smoothened receptor modulators” (Pfizer Inc., priority 2010, dated 2015).

Assays:
Gli-Luc/MEF cells = assay: Gli-Luc/MEF assay; type: cell-based, mouse; settings: Mus musculus, MEF; Shh-stimulated luciferase, 48 hours
Description: The Gli-Luc/MEF cells obtained from Gli-Luc transgenic mice contain a luciferase reporter gene under the control of the Gli response element. Luciferase activity stimulated with Sonic hedgehog ligand was inhibited by Smo inhibitors, and IC50 was subsequently calculated.
Plates were incubated at 37° C. and 5% CO2 overnight. On day two, cells were dosed with test compounds at a final concentration ranging from 3 μM to 50 μM at a 3-time series dilution. Immediately after dosing cells with compounds, recombinant mouse sonic hedgehog (Shh, R&D Systems 464-SH) was added to a final concentration of 2 μg/mL. The cells were incubated with compounds and Shh for 48 hours at 37° C. and 5% CO2. Luciferase assays were conducted on Day 4 using the Bright-Glo Luciferase assay system (Promega E2620) according to Promega's protocol. Briefly, Bright-Glo luciferase reagent was made up and 25 μL were added to each well of the 384-well plate containing media. Plates were kept at room temperature for 5 minutes, and then read on an Envision Luminescence plate reader (Perkin-Elmer). IC50 of the inhibition was calculated by using GraphPad Prism.

human Smo = human Smo (Homo sapiens (Human), UniProt Q99835); assay: Smo radioligand competition binding assay; settings: for inhibition at 0.05 µM: 0.05 μM test compound, read-out: Smo % inh. @ 0.05 μM
Description: Smo Radioligand Competition Binding Assay
Membranes were prepared from a stable cell line created in HEK293FlpIn-TetR cells (Invitrogen) using Flp recombinase-mediated insertion of the pSecTag-FRT/V5-His vector containing a cDNA encoding amino acids […] of human Smo fused to the murine Igk leader sequence to produce a cell surface expressed Smo 181-781 protein. Hygromycin-resistant clones were obtained and stained for LacZ expression (no expression indicates a correct knock-in of fusion cDNA). LacZ-negative cells were analyzed for binding tritiated Smo antagonists. For membrane preparation, the HEK293 cells expressing Smo 181-781 were grown to 90% confluence in nine to fifteen 245 mm×245 mm×22 mm dishes, washed with Dulbecco's PBS (15 mL per dish) and harvested via scraping in 10 mL of DPBS. The cells were collected and centrifuged at 1500 rpm (400×g) for 10 min at 4° C. The cell pellets were re-suspended in 40 mL of cold DPBS and washed by centrifugation at 2300 rpm (950×g max) for 10 minutes at 4° C. The supernatant was aspirated and the cell pellet was snap frozen in a methanol/dry ice bath and stored at −70° C. For membrane preparation, 15 mL of Membrane Preparation Buffer (50 mM Tris-HCl pH 7.5, 250 mM sucrose with Roche complete protease cocktail tablets) was added to the tube containing the cell pellet, then cells are rapidly thawed, and homogenized using an Ultra-Turrax T8 (IKA Labortechnik) set on “6” for 15 seconds for 5-6 times in icy water bath. This homogenate was diluted up to 50 mL using Membrane Preparation Buffer and centrifuged at 35,000 rpm in a Beckman Ti45 rotor (140,000×g) for 35 minutes at 4° C. followed by aspiration of the supernatant and re-suspension of the pellet in 5 mL of Assay Buffer (50 mM Tris-HCl pH 7.5, 100 mM NaCl, 25 mM MgCl2, 1 mM EDTA, and 0.1% protease free bovine serum albumin). The re-suspended pellet was then homogenized in a glass tissue grinder. The re-suspended membranes were aliquoted (0.5 mL aliquots), snap frozen and stored at −70° C. Total protein in the membrane preparation was determined using the Pierce BCA protein assay (Pierce Chemical).
For the binding competition assay, 100 μL of Assay Buffer was added to all the wells of a 96 well GF/B filter plate (Millipore MultiScreen-HTS-FB cat# MSFBN6B50) for 10 minutes to pre-wet the filter prior to evacuation of the buffer (8 inches Hg for 8 seconds). To the pre-wet wells is added: 20 μL of Assay Buffer, 10 μL diluted test agent, 20 μL of a tritiated Smo antagonist (15 nM stock solution), and 50 μL of membrane preparation (40 μg total protein per well). The plates are sealed and mixed at room temperature for 5 min, incubated at room temperature for 2 hours, then washed 5 times with 100 μL/each of wash buffer and vacuum dried for 8 seconds at 8 inches Hg. The plate is then dried for one hour in a 60° C. oven prior to the addition of 45 μL of Microscint 20 (Packard, #6013621) to each well and incubation at RT for 30 minutes to 1 hour. The plate is counted in a TopCount scintillation counter (Perkin Elmer).
Data analysis uses Excel for % Inhibition and Graphpad Prism for IC50 calculation. Total binding (TB, in the absence of inhibitors)=average of tritiated Smo antagonist 3 nM+Smo membrane (40 μg/wells (approx 5000-7000 CPM)). Non-specific binding (NSB)=average of tritiated Smo antagonist (3 nM)+cold Smo antagonist (30 μM)+Smo membrane (approx 600-1200 CPM). Specific binding (SB)=(total binding−non-specific binding). % Inhibition=[1−(compound Specific binding/control Specific binding)]×100%. IC50 is calculated by fitting the data to the four parameter sigmoidal dose-response curve (variable slope) Y=Bottom+(Top-Bottom)/(1+10^((LogEC50−X)*HillSlope)). X is the logarithm of the inhibitor concentration. Y is the response; Y starts at Bottom and goes to Top with a sigmoid shape.

human Smo, sequence (Q99835 181-787): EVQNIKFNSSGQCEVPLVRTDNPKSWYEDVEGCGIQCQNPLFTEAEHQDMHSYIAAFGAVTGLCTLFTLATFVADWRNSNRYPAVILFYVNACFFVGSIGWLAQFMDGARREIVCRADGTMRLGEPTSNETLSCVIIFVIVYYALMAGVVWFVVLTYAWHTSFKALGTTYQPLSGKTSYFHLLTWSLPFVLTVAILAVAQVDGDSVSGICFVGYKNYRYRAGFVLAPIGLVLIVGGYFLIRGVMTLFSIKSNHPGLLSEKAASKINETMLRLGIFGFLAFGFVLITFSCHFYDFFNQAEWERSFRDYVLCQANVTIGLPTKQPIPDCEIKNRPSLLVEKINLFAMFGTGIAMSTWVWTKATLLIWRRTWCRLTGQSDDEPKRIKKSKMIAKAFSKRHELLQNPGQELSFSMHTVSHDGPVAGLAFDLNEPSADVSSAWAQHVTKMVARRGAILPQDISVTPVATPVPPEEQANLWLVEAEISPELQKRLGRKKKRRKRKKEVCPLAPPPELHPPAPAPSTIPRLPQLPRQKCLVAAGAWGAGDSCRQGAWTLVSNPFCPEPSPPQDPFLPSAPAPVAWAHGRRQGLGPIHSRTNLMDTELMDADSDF

Molecule `Cc1cccnc1-c1cc(N2CCC(C(=O)N[C@H]3CC[C@H](O)CC3)CC2)ncc1Cl` (stereo in doubt) [Example A-71, 1-(5′-chloro-3-methyl-2,4′-bipyridin-2′-yl)-N-(trans-4-hydroxycyclohexyl)piperidine-4-carboxamide] has an IC50 (Gli-Luc/MEF cells) of 39.4 nM, an IC50 (human Smo) of 72.9 nM and an inhibition at 0.05 µM (human Smo) of 85.7%.
`CS(=O)(=O)NC1CCN(c2cc(-c3ccccn3)c(Cl)cn2)CC1` [Example A-7, N-[1-(5′-chloro-2,4′-bipyridin-2′-yl)piperidin-4-yl]methanesulfonamide] showed an inhibition at 0.05 µM (human Smo) of 45%.
Work on `Cc1cccnc1-c1cc(N2CCC(NS(C)(=O)=O)CC2)ncc1Cl` [Example A-8, N-[1-(5′-chloro-3-methyl-2,4′-bipyridin-2′-yl)piperidin-4-yl]methanesulfonamide] yielded an IC50 (Gli-Luc/MEF cells) of 39.2 nM, an IC50 (human Smo) of 18.7 nM and an inhibition at 0.05 µM (human Smo) of 92%.
`Cc1ccc(-c2cc(N3CCC(NS(C)(=O)=O)CC3)ncc2Cl)nc1` [Example A-9, N-[1-(5′-chloro-5-methyl-2,4′-bipyridin-2′-yl)piperidin-4-yl]methanesulfonamide] showed an IC50 (Gli-Luc/MEF cells) of 226 nM, an IC50 (human Smo) of 75 nM and an inhibition at 0.05 µM (human Smo) of 65%.
`CS(=O)(=O)NC1CCN(c2cc(-c3ncccc3Cl)c(Cl)cn2)CC1` [Example A-10, N-[1-(3,5′-dichloro-2,4′-bipyridin-2′-yl)piperidin-4-yl]methanesulfonamide] showed an IC50 (Gli-Luc/MEF cells) of 209 nM, an IC50 (human Smo) of 32.1 nM and an inhibition at 0.05 µM (human Smo) of 75%.
In the case of `CS(=O)(=O)NC1CCN(c2cc(-c3ccc(Cl)cn3)c(Cl)cn2)CC1` [Example A-11, N-[1-(5,5′-dichloro-2,4′-bipyridin-2′-yl)piperidin-4-yl]methanesulfonamide], the IC50 (Gli-Luc/MEF cells) is reported as 152 nM, the IC50 (human Smo) is reported as 32.9 nM and the inhibition at 0.05 µM (human Smo) is reported as 78%.
With `CS(=O)(=O)NC1CCN(c2cc(-c3ncc(Cl)cc3Cl)c(Cl)cn2)CC1` [Example A-12, N-[1-(3,5,5′-trichloro-2,4′-bipyridin-2′-yl)piperidin-4-yl]methanesulfonamide] the IC50 (Gli-Luc/MEF cells) was 53.4 nM, the IC50 (human Smo) was 18.8 nM and the inhibition at 0.05 µM (human Smo) was 88%.
With `CS(=O)(=O)NC1CCN(c2cc(-c3ccc(C(F)(F)F)cn3)c(Cl)cn2)CC1` [Example A-13, N-{1-[5′-chloro-5-(trifluoromethyl)-2,4′-bipyridin-2′-yl]piperidin-4-yl}methanesulfonamide] the IC50 (Gli-Luc/MEF cells) was 404 nM, the IC50 (human Smo) was 110 nM and the inhibition at 0.05 µM (human Smo) was 56%.
In the case of `Cc1cnc(-c2cc(N3CCC(NS(C)(=O)=O)CC3)ncc2Cl)c(C)c1` [Example A-14, N-[1-(5′-chloro-3,5-dimethyl-2,4′-bipyridin-2′-yl)piperidin-4-yl]methanesulfonamide], the IC50 (Gli-Luc/MEF cells) is reported as 16.4 nM, the IC50 (human Smo) is reported as 6.4 nM and the inhibition at 0.05 µM (human Smo) is reported as 95%.
Work on `CS(=O)(=O)NC1CCN(c2ccc(Cl)c(-c3ccccn3)n2)CC1` [Example A-15, N-[1-(3-chloro-2,2′-bipyridin-6-yl)piperidin-4-yl]methanesulfonamide] yielded an IC50 (Gli-Luc/MEF cells) of 78.5 nM, an IC50 (human Smo) of 34.3 nM and an inhibition at 0.05 µM (human Smo) of 83%.
Work on `Cc1cccnc1-c1nc(N2CCC(NS(C)(=O)=O)CC2)ccc1Cl` [Example A-16, N-[1-(3-chloro-3′-methyl-2,2′-bipyridin-6-yl)piperidin-4-yl]methanesulfonamide] yielded an IC50 (Gli-Luc/MEF cells) of 14.5 nM, an IC50 (human Smo) of 20.6 nM and an inhibition at 0.05 µM (human Smo) of 97.8%.
In the case of `CS(=O)(=O)NC1CCN(c2cc(-c3ncc(Cl)cc3F)c(Cl)cn2)CC1` [Example A-17, N-[1-(5,5′-dichloro-3-fluoro-2,4′-bipyridin-2′-yl)piperidin-4-yl]methanesulfonamide], the IC50 (Gli-Luc/MEF cells) is reported as 60 nM, the IC50 (human Smo) is reported as 511 nM and the inhibition at 0.05 µM (human Smo) is reported as 63%.
In the case of `CS(=O)(=O)NC1CCN(c2cc(-c3ccc(F)cn3)c(Cl)cn2)CC1` [Example A-18, N-[1-(5′-chloro-5-fluoro-2,4′-bipyridin-2′-yl)piperidin-4-yl]methanesulfonamide], the IC50 (Gli-Luc/MEF cells) is reported as 82 nM, the IC50 (human Smo) is reported as 343 nM and the inhibition at 0.05 µM (human Smo) is reported as 58.9%.
`Cc1cccnc1-c1cc(N2CCN(c3ccc(C#N)cn3)CC2)ncc1Cl` [Example A-19, 6-[4-(5′-chloro-3-methyl-2,4′-bipyridin-2′-yl)piperazin-1-yl]nicatinonitrile] gave an IC50 (Gli-Luc/MEF cells) of 10.1 nM, an IC50 (human Smo) of 37.5 nM and an inhibition at 0.05 µM (human Smo) of 91.5%.
Work on `Cc1cccnc1-c1cc(N2CCC3(CC2)CN(C)C(=O)O3)ncc1Cl` [Example A-20, 8-(5′-chloro-3-methyl-2,4′-bipyridin-2′-yl)-3-methyl-1-oxa-3,8-diazaspiro[4.5]decan-2-one] yielded an IC50 (Gli-Luc/MEF cells) of 109 nM, an IC50 (human Smo) of 407 nM and an inhibition at 0.05 µM (human Smo) of 64.6%.
For `Cc1cccnc1-c1cc(N2CCC3(CC2)CNC(=O)O3)ncc1Cl` [Example A-21, 8-(5′-chloro-3-methyl-2,4′-bipyridin-2′-yl)-1-oxa-3,8-diazaspiro[4.5]decan-2-one], the IC50 (Gli-Luc/MEF cells) was 114 nM, the IC50 (human Smo) was 297 nM and the inhibition at 0.05 µM (human Smo) was 65.9%.
For `Cc1cccnc1-c1cc(N2CCN(S(C)(=O)=O)CC2)ncc1Cl` [Example A-22, 5′-chloro-3-methyl-2′-[4-(methylsulfonyl)piperazin-1-yl]-2,4′-bipyridine], the IC50 (Gli-Luc/MEF cells) was 42 nM, the IC50 (human Smo) was 110 nM and the inhibition at 0.05 µM (human Smo) was 81.5%.
In the case of `CC(=O)N1CCN(c2cc(-c3ncccc3C)c(Cl)cn2)CC1` [Example A-23, 2′-(4-acetylpiperazin-1-yl)-5′-chloro-3-methyl-2,4′-bipyridine], the IC50 (Gli-Luc/MEF cells) is reported as 194 nM, the IC50 (human Smo) is reported as 417 nM and the inhibition at 0.05 µM (human Smo) is reported as 59.5%.
`COC(=O)N1CCN(c2cc(-c3ncccc3C)c(Cl)cn2)CC1` [Example A-24, methyl 4-(5′-chloro-3-methyl-2,4′-bipyridin-2′-yl)piperazine-1-carboxylate] was tested, and the IC50 (Gli-Luc/MEF cells) was 126 nM, the IC50 (human Smo) was 243 nM and the inhibition at 0.05 µM (human Smo) was 69.3%.
`Cc1cccnc1-c1cc(N2CCN(C(=O)CO)CC2)ncc1Cl` [Example A-25, 2-[4-(5′-chloro-3-methyl-2,4′-bipyridin-2′-yl)piperazin-1-yl]-2-oxoethanol] was tested, and the IC50 (Gli-Luc/MEF cells) was 197 nM, the IC50 (human Smo) was 239 nM and the inhibition at 0.05 µM (human Smo) was 72.1%.
Molecule `CC(=O)N1CCN(c2ncc(Cl)c(-c3ncccc3C)n2)CC1` [Example A-26, 2-(4-acetylpiperazin-1-yl)-5-chloro-4-(3-methylpyridin-2-yl)pyrimidine] has an IC50 (Gli-Luc/MEF cells) of 189 nM, an IC50 (human Smo) of 359 nM and an inhibition at 0.05 µM (human Smo) of 69.9%.
Work on `COCCC(=O)NC1CCN(c2cc(-c3ncccc3C)c(Cl)cn2)CC1` [Example A-27, N-[1-(5′-chloro-3-methyl-2,4′-bipyridin-2′-yl)piperidin-4-yl]-3-methoxypropanamide] yielded an IC50 (Gli-Luc/MEF cells) of 21.1 nM, an IC50 (human Smo) of 107 nM and an inhibition at 0.05 µM (human Smo) of 75.7%.
In the case of `O=S(=O)(CCO)N1CCN(c2ccc(Cl)c(-c3ccccn3)n2)CC1` [Example A-137, 2-{[4-(3-chloro-2,2′-bipyridin-6-yl)piperazin-1-yl]sulfonyl}ethanol], the inhibition at 0.05 µM (human Smo) is reported as 45.8%.
